Results taken from ChEMBL document CHEMBL1909046, “DrugMatrix in vitro pharmacology data”.

Key:
[1] = molecular target: Platelet-activating factor receptor (Homo sapiens, UniProt P25105); experiment: biochemical; assay type: tissue-based; details: platelet; further: in other assays of this panel Not Active means under 50% inhibition at 10 µM
[2] = molecular target: T1, C-X-C chemokine receptor type 2 (Homo sapiens, UniProt P25025); assay type: cell membranes, Membrane; details: cho-k1; further: in other assays of this panel Not Active means under 50% inhibition at 10 µM
T1 sequence (P25025 whole entry): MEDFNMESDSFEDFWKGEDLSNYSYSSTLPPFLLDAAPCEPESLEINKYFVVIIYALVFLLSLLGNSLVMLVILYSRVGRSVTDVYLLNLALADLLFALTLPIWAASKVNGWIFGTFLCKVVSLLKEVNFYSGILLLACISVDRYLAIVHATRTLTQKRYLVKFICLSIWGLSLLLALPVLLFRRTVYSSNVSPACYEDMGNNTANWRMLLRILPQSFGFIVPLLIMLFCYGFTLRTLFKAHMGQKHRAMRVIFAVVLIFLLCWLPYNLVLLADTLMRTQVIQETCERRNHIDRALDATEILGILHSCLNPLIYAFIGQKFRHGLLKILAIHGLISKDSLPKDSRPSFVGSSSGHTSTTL

Cytochrome P450 2A6 = molecular target: T2, Cytochrome P450 2A6 (Homo sapiens, UniProt P11509); details: bti-tn-5b1-4; further: in other assays of this panel Not Active means under 50% inhibition at 10 µM
T2 sequence (P11509 whole entry): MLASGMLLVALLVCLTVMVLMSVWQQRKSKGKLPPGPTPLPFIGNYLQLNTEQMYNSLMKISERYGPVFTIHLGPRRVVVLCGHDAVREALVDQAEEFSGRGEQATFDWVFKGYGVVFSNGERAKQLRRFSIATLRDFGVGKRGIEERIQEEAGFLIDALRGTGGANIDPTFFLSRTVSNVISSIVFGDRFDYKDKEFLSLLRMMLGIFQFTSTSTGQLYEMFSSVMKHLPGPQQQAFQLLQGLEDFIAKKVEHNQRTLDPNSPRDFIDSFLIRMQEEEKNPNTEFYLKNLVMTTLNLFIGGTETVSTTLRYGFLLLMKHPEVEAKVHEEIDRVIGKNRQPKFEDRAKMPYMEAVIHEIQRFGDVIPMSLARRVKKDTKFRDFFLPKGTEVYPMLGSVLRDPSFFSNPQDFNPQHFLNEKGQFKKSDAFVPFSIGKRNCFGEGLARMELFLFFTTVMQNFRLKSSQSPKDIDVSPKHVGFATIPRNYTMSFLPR

[3] = DRUGMATRIX: GABAA, Chloride Channel, TBOB radioligand binding (ligand: [3H] TBOB); assay type: cell membranes, Rattus norvegicus, Wistar, Cerebral cortex, Membrane; details: Not Active = under 50% inhibition at 10 µM
[4] = molecular target: T3, Neuropeptide Y receptor type 1 (Homo sapiens, UniProt P25929); assay type: cell membranes, Membrane; details: sk-n-mc; further: in other assays of this panel Not Active means under 50% inhibition at 10 µM
T3 sequence (P25929 whole entry): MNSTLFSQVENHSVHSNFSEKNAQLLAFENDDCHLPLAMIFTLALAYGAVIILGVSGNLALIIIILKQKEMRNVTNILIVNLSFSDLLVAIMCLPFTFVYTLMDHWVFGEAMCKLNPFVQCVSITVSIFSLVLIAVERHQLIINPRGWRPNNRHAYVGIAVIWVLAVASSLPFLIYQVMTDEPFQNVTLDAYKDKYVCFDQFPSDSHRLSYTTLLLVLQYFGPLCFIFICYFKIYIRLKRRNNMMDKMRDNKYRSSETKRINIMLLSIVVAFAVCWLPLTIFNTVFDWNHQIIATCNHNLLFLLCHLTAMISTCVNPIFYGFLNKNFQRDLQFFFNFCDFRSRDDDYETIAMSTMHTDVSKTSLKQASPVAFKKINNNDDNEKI

[5] = DRUGMATRIX: beta-Lactamase enzyme inhibition (substrate: Nitrocefin); design: species or system Bacillus cereus; details: Not Active = under 50% inhibition at 10 µM
Substance-P receptor = Substance-P receptor (Homo sapiens, UniProt P25103); assay type: cell membranes, Membrane; details: cho; further: in other assays of this panel Not Active means under 50% inhibition at 10 µM
Substance-P receptor, sequence (P25103 whole entry): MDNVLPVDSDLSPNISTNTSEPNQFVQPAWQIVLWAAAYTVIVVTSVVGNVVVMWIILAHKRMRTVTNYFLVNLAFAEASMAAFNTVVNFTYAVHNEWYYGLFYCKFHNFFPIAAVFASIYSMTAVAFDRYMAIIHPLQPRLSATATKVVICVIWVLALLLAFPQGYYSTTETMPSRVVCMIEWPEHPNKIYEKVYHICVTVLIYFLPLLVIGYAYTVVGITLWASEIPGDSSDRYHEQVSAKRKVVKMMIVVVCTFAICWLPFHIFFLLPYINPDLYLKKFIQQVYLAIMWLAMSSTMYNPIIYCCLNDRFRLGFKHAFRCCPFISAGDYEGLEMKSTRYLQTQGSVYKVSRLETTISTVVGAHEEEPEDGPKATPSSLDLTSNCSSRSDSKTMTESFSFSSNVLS

[6] = DRUGMATRIX: Potassium Channel [KATP] radioligand binding (ligand: [3H] Glyburide); assay type: cell membranes, Membrane; details: hit-t15; Not Active = under 50% inhibition at 10 µM
[7] = molecular target: Beta-1 adrenergic receptor (Homo sapiens, UniProt P08588); experiment: DRUGMATRIX: Adrenergic beta1 radioligand binding (ligand: [125I] Cyanopindolol); assay type: cell membranes, CHO-K1, Membrane; details: cho-k1; Not Active = under 50% inhibition at 10 µM
Beta-1 adrenergic receptor, sequence (P08588 whole entry): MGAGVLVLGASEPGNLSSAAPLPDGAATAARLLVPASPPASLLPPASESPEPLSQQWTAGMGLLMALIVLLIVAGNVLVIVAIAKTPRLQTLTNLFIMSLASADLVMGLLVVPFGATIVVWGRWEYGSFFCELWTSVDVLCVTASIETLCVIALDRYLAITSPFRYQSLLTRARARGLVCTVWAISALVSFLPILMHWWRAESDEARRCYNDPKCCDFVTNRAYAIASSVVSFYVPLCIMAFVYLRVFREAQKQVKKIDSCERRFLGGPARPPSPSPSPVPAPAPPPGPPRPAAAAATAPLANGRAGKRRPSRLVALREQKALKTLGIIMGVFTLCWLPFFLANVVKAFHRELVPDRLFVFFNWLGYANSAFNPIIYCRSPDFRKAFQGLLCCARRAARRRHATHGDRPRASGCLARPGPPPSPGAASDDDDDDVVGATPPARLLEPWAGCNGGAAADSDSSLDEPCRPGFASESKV

[8] = DRUGMATRIX: Glutamate, AMPA radioligand binding (ligand: [3H] AMPA); assay type: cell membranes, Rattus norvegicus, Wistar, Cerebral cortex, Membrane; details: Not Active = under 50% inhibition at 10 µM

Platelet-activating factor receptor, sequence (P25105 whole entry): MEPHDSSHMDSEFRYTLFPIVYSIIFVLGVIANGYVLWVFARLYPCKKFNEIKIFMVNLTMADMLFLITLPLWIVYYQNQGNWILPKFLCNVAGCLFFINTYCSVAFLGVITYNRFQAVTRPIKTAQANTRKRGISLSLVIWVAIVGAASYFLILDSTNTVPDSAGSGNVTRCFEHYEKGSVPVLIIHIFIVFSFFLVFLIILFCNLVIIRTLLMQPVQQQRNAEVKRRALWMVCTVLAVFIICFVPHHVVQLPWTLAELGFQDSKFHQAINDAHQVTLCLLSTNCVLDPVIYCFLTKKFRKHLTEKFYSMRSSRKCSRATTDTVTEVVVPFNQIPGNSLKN

CNS(=O)(=O)Cc1ccc2[nH]cc(CCN(C)C)c2c1
Not Active: IC50 [1] | IC50 [2] | IC50 (Cytochrome P450 2A6) | Ki (Cytochrome P450 2A6) | IC50 [3] | Ki [3] | IC50 [4] | IC50 [5] | Ki [5] | IC50 (Substance-P receptor) | IC50 [6] | Ki [6] | IC50 [7] | IC50 [8] | Ki [8]

CCCc1nn(C)c2c(=O)[nH]c(-c3cc(S(=O)(=O)N4CCN(C)CC4)ccc3OCC)nc12
Not Active: IC50 [1] | IC50 [2] | IC50 (Cytochrome P450 2A6) | Ki (Cytochrome P450 2A6) | IC50 [3] | Ki [3] | IC50 [4] | IC50 [5] | Ki [5] | IC50 (Substance-P receptor) | IC50 [6] | Ki [6] | IC50 [7] | IC50 [8] | Ki [8]

CC1=C(CC(=O)O)c2cc(F)ccc2/C1=C\c1ccc(S(C)(=O)=O)cc1 [EXISULIND]
Not Active: IC50 [1] | IC50 [2] | IC50 (Cytochrome P450 2A6) | Ki (Cytochrome P450 2A6) | IC50 [3] | Ki [3] | IC50 [4] | IC50 [5] | Ki [5] | IC50 (Substance-P receptor) | IC50 [6] | Ki [6] | IC50 [7] | IC50 [8] | Ki [8]

Nc1nc2c(c(=O)[nH]1)N(C=O)C(CNc1ccc(C(=O)N[C@@H](CCC(=O)O)C(=O)O)cc1)CN2 (stereo not given in full) [LEUCOVORIN]
Not Active: IC50 [1] | IC50 [2] | IC50 (Cytochrome P450 2A6) | Ki (Cytochrome P450 2A6) | IC50 [3] | Ki [3] | IC50 [4] | IC50 [5] | Ki [5] | IC50 (Substance-P receptor) | IC50 [6] | Ki [6] | IC50 [7] | IC50 [8] | Ki [8]

C[C@@H](O)[C@H]1C(=O)N2C(C(=O)O)=C(S[C@@H]3CN[C@H](C(=O)N(C)C)C3)[C@H](C)[C@H]12 [MEROPENEM]
Not Active: IC50 [1] | IC50 [2] | IC50 (Cytochrome P450 2A6) | Ki (Cytochrome P450 2A6) | IC50 [3] | Ki [3] | IC50 [4] | IC50 [5] | Ki [5] | IC50 (Substance-P receptor) | IC50 [6] | Ki [6] | IC50 [7] | IC50 [8] | Ki [8]

O=P(O)(O)C(O)(Cc1cccnc1)P(=O)(O)O [RISEDRONIC ACID]
Not Active: IC50 [1] | IC50 [2] | IC50 (Cytochrome P450 2A6) | Ki (Cytochrome P450 2A6) | IC50 [3] | Ki [3] | IC50 [4] | IC50 [5] | Ki [5] | IC50 (Substance-P receptor) | IC50 [6] | Ki [6] | IC50 [7] | IC50 [8] | Ki [8]

CN(CCOc1ccc(CC2SC(=O)NC2=O)cc1)c1ccccn1 (stereo not given) [ROSIGLITAZONE]
Not Active: IC50 [1] | IC50 [2] | IC50 (Cytochrome P450 2A6) | Ki (Cytochrome P450 2A6) | IC50 [3] | Ki [3] | IC50 [4] | IC50 [5] | Ki [5] | IC50 (Substance-P receptor) | IC50 [6] | Ki [6] | IC50 [7] | IC50 [8] | Ki [8]

C=C(C)[C@H]1Cc2c(ccc3c2O[C@@H]2COc4cc(OC)c(OC)cc4[C@@H]2C3=O)O1 [ROTENONE]
Not Active: IC50 [1] | IC50 [2] | IC50 (Cytochrome P450 2A6) | Ki (Cytochrome P450 2A6) | IC50 [3] | Ki [3] | IC50 [4] | IC50 [5] | Ki [5] | IC50 (Substance-P receptor) | IC50 [6] | Ki [6] | IC50 [7] | IC50 [8] | Ki [8]

C#CCN(C)[C@H](C)Cc1ccccc1 [SELEGILINE]
Not Active: IC50 [1] | IC50 [2] | IC50 (Cytochrome P450 2A6) | Ki (Cytochrome P450 2A6) | IC50 [3] | Ki [3] | IC50 [4] | IC50 [5] | Ki [5] | IC50 (Substance-P receptor) | IC50 [6] | Ki [6] | IC50 [7] | IC50 [8] | Ki [8]

CO[C@H]1C[C@@H]2CC[C@@H](C)[C@@](O)(O2)C(=O)C(=O)N2CCCC[C@H]2C(=O)O[C@H]([C@H](C)C[C@@H]2CC[C@@H](O)[C@H](OC)C2)CC(=O)[C@H](C)/C=C(\C)[C@@H](O)[C@@H](OC)C(=O)[C@H](C)C[C@H](C)/C=C/C=C/C=C/1C [SIROLIMUS]
Not Active: IC50 [1] | IC50 [2] | IC50 (Cytochrome P450 2A6) | Ki (Cytochrome P450 2A6) | IC50 [3] | Ki [3] | IC50 [4] | IC50 [5] | Ki [5] | IC50 (Substance-P receptor) | IC50 [6] | Ki [6] | IC50 [7] | IC50 [8] | Ki [8]

CN[C@@H]1[C@H](O)[C@H](NC)[C@H]2O[C@@]3(O)C(=O)C[C@@H](C)O[C@H]3O[C@@H]2[C@H]1O [SPECTINOMYCIN]
Not Active: IC50 [1] | IC50 [2] | IC50 (Cytochrome P450 2A6) | Ki (Cytochrome P450 2A6) | IC50 [3] | Ki [3] | IC50 [4] | IC50 [5] | Ki [5] | IC50 (Substance-P receptor) | IC50 [6] | Ki [6] | IC50 [7] | IC50 [8] | Ki [8]
